The source of these data is patent publication US20260365732A1, “METHODS OF TREATING CANCER IN SUBJECTS WITH PRIOR IMMUNE CHECKPOINT INHIBITOR EXPOSURE” (Curis, Inc., priority 2023, published 2026).

The structures appear in SMILES notation.

A short description of data set [1]: Study Compound 1-101 (safety, drug exposure, biologic activity and clinical efficacy at 200 mg BID). In kind it is in vivo, human. An excerpt:
Three patients with AML or MDS will be enrolled at the designated dose. If none of the first 3 patients experience a dose-limiting toxicity during the first cycle, patients may be enrolled into the next higher dose level. If 1 patient out of the first 3 experiences a dose-limiting toxicity, the dose level may be expanded with an additional 3 patients.

A further data set relates to bone marrow (BM) blasts. Kind of data set: Clinical study of emavusertib (Compound 1) on bone marrow (BM) blasts in AML / hrMDS patients with vs without prior immune checkpoint inhibitor exposure (FIG. 1A, FIG. 1B). In kind it is in vivo, human. An excerpt:
FIG. 1A is a graph showing the results of a clinical study for the efficacy of emavusertib (Compound 1) administration on reducing bone marrow (BM) blasts in patients with blood cancer. Blasts are immature white blood cells that are usually found in small numbers in healthy bone marrow. High levels of blasts circulating in the blood are associated with cancer. This clinical study measured the change in blast levels before and after receiving Compound 1 treatment. Here, the relative change in blast levels before and after Compound 1 is compared between patients who had previously received immune checkpoint inhibitors in prior treatment and patients who were naïve to immune checkpoint inhibitors. The comparison groups each contain at least 5 high risk myelodysplastic syndrome (hrMDS) patients and 1 acute myeloid leukemia (AML) patient.
FIG. 1B is a graph showing baseline and best post-treatment blast levels of the subjects in FIG. 1A. […] Each patient is shaded according to their diagnosis.
To support the development of effective treatment regimens with Compound 1, a study was conducted to monitor bone marrow (BM) samples obtained from AML and high risk MDS patients with different prior histories of treatment. […] The present disclosure relates to methods of treating cancer with Compound 1 and other IRAK4 inhibitors or degraders, wherein the subject has a history of treatment with an immune checkpoint inhibitor.
This is a Phase 1, open-label dose escalation and cohort expansion study of Compound 1 as a monotherapy in patients with AML or MDS and in combination with AZA in treatment-naïve, adult patients with AML or hrMDS or in combination with VEN in patients with relapsed/refractory AML or hrMDS, after first line therapy.

As to `Cc1cc(-c2nc(C(=O)Nc3cc4oc(N5CCOCC5)nc4nc3N3CC[C@@H](O)C3)co2)ccn1` [Compound 1, emavusertib], in data set [1], the “biologic activity and clinical efficacy” value is “signs of biologic activity and clinical efficacy”; the “safety of starting dose level” value is listed as “safe”. The “rate of response, as evidenced by reduced BM blast counts in hematology” value with bone marrow (BM) blasts (AML and high risk MDS patients, history of treatment with an immune checkpoint inhibitor vs no prior exposure) was “higher rate of response”. In addition, the “relative change in blast levels before and after Compound 1” value with bone marrow (BM) blasts (patients with prior immune checkpoint inhibitors (magrolimab, ipilimumab, or nivolumab + ipilimumab) vs not previously exposed, each group at least 5 hrMDS and 1 AML patient, FIG. 1A) is given as “significant reduction in blasts”. In the data set on bone marrow (BM) blasts (prior immune checkpoint inhibitor exposure compared to no prior exposure, FIG. 1B), the “change in bone marrow blast counts from baseline to best post-baseline” value is recorded as “higher decreases in bone marrow blast counts”. Further, the “baseline vs best post-baseline bone marrow blasts counts” value in the data set with bone marrow (BM) blasts (prior immune checkpoint inhibitor exposure vs without exposure, FIG. 1A) is “significant difference”.
